PMC9334274, “A unique class of Zn^2+-binding serine-based PBPs underlies cephalosporin resistance and sporogenesis in Clostridioides difficile” (Nature Communications, 2022)
Converted amounts (≈) assume the structure as drawn. “And” between values parts separate entries of the source, which are not always exact repeats. Equal entries are not always repeated. “Also recorded” adds a separate entry of the source.

Experiments:
Ldt3 = format: biochemical, Clostridioides difficile R20291; details: 25 µM
C. difficile PBP3 = format: binding, Clostridioides difficile R20291; details: for PBP3 % inhibiton: 25 µM
Ldt2 = assay: Nitrocefin inhibition assay, Ldt2; format: biochemical, Clostridioides difficile R20291; details: for Ldt2 % inhibiton: β-lactam at 25 uM, nitrocefin hydrolysis, two independent experiments, individual values
Procedure: Reactions were performed in a 96-well polystyrene plate with a final volume of 60 μL at 37 °C in 20 mM Tris pH 7, 200 mM NaCl. […] Protein was then added to the well for a final concentration of 1 µM and incubated for 15 min at 37 °C. 1 µL of nitrocefin (Millipore Sigma) was then added to each well for a final concentration of 20 µM, and reaction progress was monitored using a BioTek Cytation 5 plate reader (BioTek Instruments) at 488 nm and 37 °C for 1 h. Reaction rates were normalized to the control (no inhibitor) for % inhibition values. Assays were performed in duplicate and mean % inhibition values was calculated.

[1] = system: C. difficile strain R20291; assay: Minimum inhibitory concentration (MIC) determination; details: for MIC: Clostridioides difficile, R20291, 24 h

| Compound | Ldt3 % inhibiton (Ldt3) | PBP3 % inhibiton (C. difficile PBP3) | MIC [1] [µg/mL] | also measured |
| --- | --- | --- | --- | --- |
| CC(=O)OCC1=C(C(=O)O)N2C(=O)[C@@H](NC(=O)Cc3cccs3)[C@H]2SC1 [cephalothin] | 13.1295% and 19.9174% | 97.9928% and 94.8412% and 96.842% | 64 (≈ 161 µM) | Ldt2 % inhibiton (Ldt2): 0% |
| COc1cccc(OC)c1C(=O)N[C@@H]1C(=O)N2[C@@H]1SC(C)(C)[C@@H]2C(=O)O [methicillin] |  | 92.4606% and 92.3713% and 94.0819% | 8 (≈ 21 µM) |  |
| CC1=C(C(=O)O)N2C(=O)[C@@H](NC(=O)[C@H](N)c3ccccc3)[C@H]2SC1 [cephalexin] | 0% |  | 4 (≈ 11.5 µM) | inhibition of Ldt3 (in words) (Ldt3): failing to inhibit; inhibition of PBP3 (in words) (C. difficile PBP3): little to no biochemical inhibition; also recorded: no detectable inhibition; inhibition of Ldt2 (in words) (Ldt2; 25 µM): failing to inhibit; Ldt2 % inhibiton (Ldt2): 0% |
| CO/N=C(\C(=O)N[C@@H]1C(=O)N2C(C(=O)O)=C(CSc3nc(=O)c(=O)[nH]n3C)CS[C@H]12)c1csc(N)n1 [ceftriaxone] |  | 101.93% and 95.7776% and 100% | 32 (≈ 57.7 µM) |  |
| CCN1CCN(C(=O)N[C@@H](C(=O)N[C@@H]2C(=O)N3[C@@H]2SC(C)(C)[C@@H]3C(=O)O)c2ccccc2)C(=O)C1=O [piperacillin] | 51.7086% and 57.3554% | 92.03% and 94.7239% and 96.6236% | 16 (≈ 30.9 µM) | inhibition of Ldt2 (in words) (Ldt2; 25 µM): best inhibitors of Ldt2; Ldt2 % inhibiton (Ldt2; listed as PIP, 25 µM): 57.879% and 59.7393% |
| CC(=O)OCC1=C(C(=O)O)N2C(=O)[C@@H](NC(=O)[C@H](N)c3ccccc3)[C@H]2SC1 [cephaloglycin] | 9.353% and 13.9669% | 95.4184% and 89.9822% and 93.12% | 256 (≈ 631 µM) | Ldt2 % inhibiton (Ldt2): 0% |
| CO/N=C(\C(=O)N[C@@H]1C(=O)N2C(C(=O)O)=C(/C=C\c3scnc3C)CS[C@H]12)c1csc(N)n1 [cefditoren] | 72.482% and 72.4793% | 82.5587% and 73.9018% and 78.609% | 16 (≈ 31.6 µM) | inhibition of Ldt3 (in words) (Ldt3): best; Ldt2 % inhibiton (Ldt2; listed as CDN, 25 µM): 13.9657% and 18.7883% |
| CC1(C)S[C@@H]2[C@H](NC(=O)[C@H](N)c3ccccc3)C(=O)N2[C@H]1C(=O)O [ampicillin] |  | 92.7496% and 89.9467% and 91.5944% | 2 (≈ 5.72 µM) | Ldt2 % inhibiton (Ldt2; listed as AMP, 25 µM): 1.643% and 4.064%; MIC (X) [1]: 2 |
| Nc1nc(/C(=N/O)C(=O)N[C@@H]2C(=O)N3C(C(=O)O)=C(/C=C4\CCN([C@@H]5CCNC5)C4=O)CS[C@H]23)ns1 [ceftobiprole] | 8.0036% and 4.298% | 100% and 96.748% | 2 (≈ 3.74 µM) | Ldt2 % inhibiton (Ldt2; listed as BPR, 25 µM): 0% and 4.7546% |
| CC(C)(O/N=C(\C(=O)N[C@@H]1C(=O)N2C(C(=O)[O-])=C(C[n+]3ccccc3)CS[C@H]12)c1csc(N)n1)C(=O)O [ceftazidime] |  | 100% and 96.9383% | 256 (≈ 468 µM) |  |
| CO/N=C(\C(=O)N[C@@H]1C(=O)N2C(C(=O)O)=C(COC(N)=O)CS[C@H]12)c1ccco1 [cefuroxime] |  | 99.6269% and 93.7981% and 97.4091% | 128 (≈ 302 µM) |  |
| C[C@@H](O)[C@H]1C(=O)N2C(C(=O)O)=C(S[C@@H]3CN[C@H](C(=O)N(C)C)C3)[C@H](C)[C@H]12 [meropenem] | 25.5396% and 27.8512% | 95.105% and 95.5466% and 97.2164% | 4 (≈ 10.4 µM) | inhibition of Ldt2 (in words) (Ldt2; 25 µM): best inhibitors of Ldt2; Ldt2 % inhibiton (Ldt2; listed as MEM, 25 µM): 88.3495% and 88.0368% |
| C[C@@H](O)[C@H]1C(=O)N2C(C(=O)O)=C(SCCN=CN)C[C@H]12 [imipenem] |  | 83.9601% and 87.3785% and 88.7659% | 128 (≈ 428 µM) | Ldt2 % inhibiton (Ldt2; listed as IMI, 25 µM): 15.7605% and 16.7178% |
| C[C@H]1[C@H](NC(=O)/C(=N\OC(C)(C)C(=O)O)c2csc(N)n2)C(=O)N1S(=O)(=O)O [aztreonam] |  |  | 256 (≈ 588 µM) |  |
